Twelve molecules from patent US8283344B2, “Method of treating inherited severe neutropenia” (Merck & Co., Inc., priority 2007, dated 2012) can be followed below.

Structures are written as SMILES.

Test [1] concerns the target T1, Human Polymorphonuclear Leukocyte Elastase (Homo sapiens, UniProt P08246).
T1 construct: Crude extract of human polymorphonuclear leukocytes (PMN) containing elastase activity; from tissue; host or cells: human polymorphonuclear leukocytes (crude extract)
T1 sequence (P08246 30-267): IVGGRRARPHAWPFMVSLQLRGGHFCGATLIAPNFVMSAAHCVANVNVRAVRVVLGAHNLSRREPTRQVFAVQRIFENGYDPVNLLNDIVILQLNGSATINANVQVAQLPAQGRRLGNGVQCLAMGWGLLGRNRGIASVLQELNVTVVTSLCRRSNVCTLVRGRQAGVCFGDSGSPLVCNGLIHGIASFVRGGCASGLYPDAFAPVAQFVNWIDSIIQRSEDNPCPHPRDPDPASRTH
Kind of test: Inhibition of human polymorphonuclear leukocyte elastase via hydrolysis of Boc-AAPAN or Boc-AAPVN. Format: biochemical. The note with it: second order rate constant for inactivation of the enzyme; crude human PMN extract, pH 7.5; to the nearest thousand; read-out: Kobs/[I]. On the procedure: Enzyme Assays for the Inhibition of Human Polymorphonuclear Leukocyte Elastase Via Hydrolysis of N-t-Boc-alanyl-alanyl-prolylalanine-p-nitroanilide (Boc-AAPAN) or N-t-Boc-alanyl-[…] (Boc-AAPVN) Reagent: • 0.05M TES (N-tris[hydroxymethyl]methyl-2-mino-ethanesulfonic acid) Buffer, pH 7.5. 0.2 mM Boc-AAPAN or Boc-AAPVN.
To prepare substrate, the solid was first dissolved in 10.0 ml DMSO. Buffer at pH 7.5 was then added to a final volume of 100 ml.
Crude extract of human polymorphonuclear leukocytes (PMN) containing elastase activity.
Inhibitors (azetidinones) to be tested dissolved in DMSO just before use.
To 1.0 ml of 0.2 mM Boc-AAPAN in a cuvette, 0.01-0.1 ml of DMSO with or without inhibitor was added. After mixing, a measurement was taken at 410 mµ to detect any spontaneous hydrolysis due to presence of test compound. 0.05 Milliliters of PMN extract was then added and the ΔOD/min at 410 mµ was measured and recorded. Beckman model 35 spectrophotometer was used.
Results were expressed to the nearest thousand k obs/I which is the second order rate constant in per mole per second for inactivation of the enzyme.
The elastase activity in the crude PMN extract may vary from one preparation to another. A control of each new batch is run, and the volume added in the assay procedure is adjusted according to activity.

The target in a further test is T2, neutrophil elastase (NE) (Homo sapiens, UniProt P08246, DEL174-181).
T2 construct: The ratio of normal-to-mutant NE products is approximately 1:1; expressed in transfected cells; host or cells: human promyelocytic tet-off HL-60 cells
T2 sequence (P08246 with tags, fused parts or gaps DEL174-181): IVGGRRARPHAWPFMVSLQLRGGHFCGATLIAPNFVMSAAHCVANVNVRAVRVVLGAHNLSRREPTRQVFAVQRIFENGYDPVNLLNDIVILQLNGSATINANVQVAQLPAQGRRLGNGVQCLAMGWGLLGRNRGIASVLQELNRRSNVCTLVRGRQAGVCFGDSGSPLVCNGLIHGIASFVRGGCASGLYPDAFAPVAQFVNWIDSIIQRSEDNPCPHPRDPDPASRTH
T2 sequence (P08246 30-267): T1 sequence (P08246 30-267)
Kind of test: NE activity in cellular SCN model (tet-off HL-60 cells expressing del.145-152 mutant NE). It is filed as cell-based. The note with it: human promyelocytic tet-off HL-60 cells. The source says:
(§1) We have established a model of SCN with doxycycline-regulated expression of del.145-152 mutant NE in human promyelocytic tet-off HL-60 cells. The ratio of normal-to-mutant NE products is approximately 1:1, which is expected in SCN patients with heterozygous mutation. […] The reduced cell growth and accelerated apoptosis were also observed in response to mutNE expression. Thus, this cellular model of SCN appears to closely recapitulate the human phenotype.

In test [2] the test system is HL-60 cells expressing the del.145-152 mutNE. Kind of test: Cell growth and myeloid differentiation of HL-60 cells expressing del.145-152 mutNE. The conditions noted are these: HL-60 cells expressing del.145-152 mutNE treated with compound. It is filed as cell-based, human.
Text: as §1

The test system of test [3] is control cells expressing normal elastase. Kind of test: Growth rate of control cells expressing normal elastase. The note with it: inhibition of NE activity. Format: cell-based, human.
Text: as §1

`CCC[C@@H](NC(=O)C1C(=O)C(CC)(CC)[C@@H]1Oc1ccc(C(=O)N2CCNCC2)cc1)c1ccc(C)cc1` (stereo partly shown) [Compound 247]: in test [1], the kinact/KI is 1.1e+06 M⁻¹ s⁻¹.

As to `CCC[C@@H](NC(=O)C1C(=O)C(CC)(CC)[C@@H]1Oc1ccc(C(=O)N2CCN(C)CC2)cc1)c1ccc(C)cc1` (stereo partly shown) [Compound 242], the kinact/KI in test [1] is 1.7e+06 M⁻¹ s⁻¹. For the same molecule, the “inhibition of the NE activity” value at neutrophil elastase (NE) was “more than 80%”. Moreover, in test [2], the cell growth entry was “complete restoration of cell growth” and the myeloid differentiation result is given as “increased myeloid differentiation”. Moreover, the “growth rate of control cells” value in test [3] is “did not reduce the growth rate”. With `CCC[C@@H](NC(=O)C1C(=O)C(CC)(CC)[C@@H]1Oc1ccc(C(=O)N2CCN(c3cccc(Cl)c3)CC2)cc1)c1ccc(C)cc1` (stereo partly shown) [Compound 244], the kinact/KI in test [1] is 2.45e+06 M⁻¹ s⁻¹.

Take `CCC[C@@H](NC(=O)C1C(=O)C(CC)(CC)[C@@H]1Oc1ccc(C(=O)N2CCN(CC)CC2)cc1)c1ccc(C)cc1` (stereo partly shown) [Compound 252]: the kinact/KI in test [1] was found to be 2.32e+06 M⁻¹ s⁻¹.

Turning to `CCC[C@@H](NC(=O)C1C(=O)C(CC)(CC)[C@@H]1Oc1ccc(C(=O)N2CCN(Cc3ccccc3)CC2)cc1)c1ccc(C)cc1` (stereo partly shown) [Compound 246], the kinact/KI in test [1] stood at 5.17e+06 M⁻¹ s⁻¹.

For `CCC[C@@H](NC(=O)C1C(=O)C(CC)(CC)[C@@H]1Oc1ccc(C(=O)N2CCN(CC(C)C)CC2)cc1)c1ccc(C)cc1` (stereo partly shown) [Compound 249], the kinact/KI in test [1] is 2.48e+06 M⁻¹ s⁻¹. On the same count and under the same terms, the figure for `CCC[C@@H](NC(=O)C1C(=O)C(CC)(CC)[C@@H]1Oc1ccc(C(=O)N2CCN(CCC)CC2)cc1)c1ccc(C)cc1` (stereo partly shown) [Compound 253] is 1.77e+06 M⁻¹ s⁻¹; for `CCC[C@@H](NC(=O)C1C(=O)C(CC)(CC)[C@@H]1Oc1ccc(C(=O)N2CCN(c3ncccn3)CC2)cc1)c1ccc(C)cc1` (stereo partly shown) [Compound 254] it is 2.14e+06 M⁻¹ s⁻¹. `CCC[C@@H](NC(=O)C1C(=O)C(CC)(CC)[C@@H]1Oc1ccc(C(=O)N2CCN(c3ccccc3)CC2)cc1)c1ccc(C)cc1` (stereo partly shown) [Compound 245]: the kinact/KI in test [1] stood at 5.28e+06 M⁻¹ s⁻¹.

For `CCC[C@@H](NC(=O)C1C(=O)C(CC)(CC)[C@@H]1Oc1ccc(C(=O)N2CCN(C(C)C)CC2)cc1)c1ccc(C)cc1` (stereo partly shown) [Compound 248], the kinact/KI in test [1] was 2.39e+06 M⁻¹ s⁻¹.

Turning to `CCC[C@@H](NC(=O)C1C(=O)C(CC)(CC)[C@@H]1Oc1ccc(C(=O)N2CCN(C3CC3)CC2)cc1)c1ccc(C)cc1` (stereo partly shown) [Compound 256], the kinact/KI in test [1] was 3.59e+06 M⁻¹ s⁻¹. Turning to `CCC[C@@H](NC(=O)C1C(=O)C(CC)(CC)[C@@H]1Oc1ccc(C(=O)N2CCN(c3ccc(F)cc3)CC2)cc1)c1ccc(C)cc1` (stereo partly shown) [Compound 243], the kinact/KI in test [1] was found to be 7.49e+06 M⁻¹ s⁻¹.
